Laboratory results taken from US20100087383A1, “INT[…] INHIBITOR AND USE THEREOF” (National University Corporation Nagoya University, priority 2006, published 2010).

Tests used:
[1] = system: Alzheimer's disease mouse model subjected to intraventricular injection of Aβ; assay: Novel object recognition test, oral administration, Alzheimer's disease mouse model subjected to intraventricular injection of Aβ25-35; assay type: in vivo; settings: day 5 after Aβ25-35, ICR mice, FIG. 2
Method: (§1) An Alzheimer's disease mouse model was produced by injecting Aβ25-35 (the aggregation of which had been accelerated by 4 days of incubation at 37° C.) to mouse cerebral ventricle, following which it was used for the experimental system. ICR mice (body weight of 20-22 g (7 weeks old), purchased from Japan SLC Inc. (Shizuoka, Japan)) were divided into 4 groups (n=15). A physiological saline solution that is a solvent for Leu-Ile, Leu-Ile (1.5 μmol/Kg), or Leu-Ile (15 μmol/Kg) was administered to Alzheimer's disease mouse model groups. Then the groups were used for the experiment.
Moreover, an Leu-Ile 7.5 μmol/Kg administrated group and an Leu-Ile 75 μmol/Kg administrated group were subjected to oral administration of Leu-Ile (7.5 μmol/Kg) and Leu-Ile (75 μmol/Kg), respectively, immediately after administration of Aβ25-35. A novel object recognition test (Ennaceur et al., Behav Brain Res 80 9-25, 1996) was conducted for all groups 3 to 5 days after intraventricular administration of Aβ25-35 or a physiological saline solution. The test results on day 5 after administration of Aβ25-35 or a physiological saline solution were compared with the other test results on […] after administration (FIG. 2).

[2] = system: Alzheimer's disease mouse model subjected to intraventricular injection of Aβ; assay: Novel object recognition test, intraperitoneal administration, Alzheimer's disease mouse model subjected to intraventricular injection of Aβ25-35; assay type: in vivo; settings: day 5 after Aβ25-35, ICR mice, FIG. 3
Method: as §1, with “cerebral ventricle and then” for “cerebral ventricle, following which it was”, “20-22 g,” for “20-22 g (7 weeks old),”, “into 5” for “into 4”, “solution was administered instead of Aβ25-35 to the cerebral ventricle of a control group. A physiological saline solution;” for “solution”
The Alzheimer's disease model control group, the Leu-Ile […] administrated group, the Leu-Ile 15 μmol/Kg administrated group, and an Leu-Ile 75 μmol/Kg administrated group were separately subjected to the experiment.
Specifically, the Leu-Ile 7.5 μmol/Kg administrated group, the Leu-Ile 15 μmol/Kg administrated group, and the Leu-Ile 75 μmol/Kg administrated group were subjected to intraperitoneal administration of Leu-Ile (7.5 μmol/Kg), Leu-Ile (15 μmol/Kg), and Leu-Ile (75 μmol/Kg), respectively, immediately after administration of Aβ25-35.
(§2) A novel object recognition test was conducted for each of the above groups 3 to 5 days after intraventricular administration of Aβ25-35 or a physiological saline solution. The test results on day 5 after administration of Aβ25-35 or a physiological saline solution were compared with the other test results on […] after administration (FIG. 3). Furthermore, Leu-Ile (15 μmol/Kg) was intraperitoneally administered to untreated mice and then the mice were subjected to a novel object recognition test similar to that conducted for the above test groups.

untreated mice = assay: Novel object recognition test in untreated mice; assay type: in vivo, mouse; settings: Leu-Ile 15 μmol/Kg intraperitoneal; untreated mice (no Aβ25-35)
Method: as §2

Leu-Ile
recognition indices (novel object recognition test) ([1]; Leu-Ile 7.5 μmol/Kg oral): decreased recognition indices were not confirmed | recognition indices (novel object recognition test) ([1]; Leu-Ile 75 μmol/Kg oral): decreased recognition indices were not confirmed | recognition indices (novel object recognition test) ([2]; Leu-Ile 1.5 μmol/Kg intraperitoneal): decreased recognition indices were not observed | recognition indices (novel object recognition test) ([2]; Leu-Ile 15 μmol/Kg intraperitoneal): decreased recognition indices were not observed | recognition indices (novel object recognition test) ([2]; Leu-Ile 75 μmol/Kg intraperitoneal): decreased recognition indices were not observed | effects of improving memory (novel object recognition test) (untreated mice): effects of improving memory were not observed
